Reference: patent US8623916B2, “Polyunsaturated fatty acid and diol ester as an anti-acne agent” (Pierre Fabre Dermo-Cosmetique, priority 2008, dated 2014)

Tests used:
[1] = system: release of arachidonic acid and eicosanoids by HaCaT keratinocytes; assay: Arachidonic acid metabolism in [3H]AA-labeled HaCaT keratinocytes stimulated by PMA/A23187; assay type: cell-based, human; conditions: HaCaT pretreated with PUFA 24 h, 500 nM PMA and 1 μM A23187 for 5 hours (FIGS. 4A-4C)
Experimental: HaCaT keratinocytes were incubated in 24-well plates in the presence of 1 μCi [^3H]AA for 18 hours under an atmosphere of 5% CO2. To test the capacity of
PUFAs to modulate the inflammatory response of keratinocytes, [^3H]-labeled HaCaT cells are pretreated with PUFAs for 24 hours, rinsed and then stimulated by 500 nM PMA and 1 μM A23187 for 5 hours. [^3H]AA and metabolites released by the HaCaT cells in the culture medium are extracted by column chromatography. The eluate is evaporated under N2. The dry residue is taken up in methanol and deposited on thin-layer silica plates activated beforehand for 1 hour at 100° C. The developing solvent is the organic phase of the mixture ethyl acetate/water/isooctane/acetic acid (110:100:50:20, v/v). [^3H]AA and metabolites (6-keto-prostaglandin F1α, 6k-PGF1α; prostaglandin (PG) FαE2D2; thromboxane (TX) B2, leukotrienes (LT) B4, C4, D4) are identified by a Berthold TLC scanner.

[2] = system: Propionibacterium acnes ATCC6919; assay: Kinetics of antibacterial activity (residual CFU count), Propionibacterium acnes; assay type: cell-based; conditions: for Log R: P. acnes
Source text: (§1) The kinetics of the antibacterial activity of 1,2-octanediol were studied by evaluating the lethality of the bacteria over time by counting residual colony-forming units (CFUs) after contact of the test solution with the bacterial suspension.
(§2) The bacterial strains used are: Staphylococcus aureus ATCC6538 and Propionibacterium acnes ATCC6919. The culture medium used for Staphylococcus aureus ATCC6538 is Trypcase Soy Agar whereas the culture medium used for Propionibacterium acnes ATCC6919 is Schaedler agar. Stock solutions containing 1% and 0.5% 1,2-octanediol are prepared extemporaneously in 1% Polysorbate 20 (qsp WFI) and then adjusted to pH 7 with 0.1 N NaOH solution.
(§3) A volume of 5 ml of each stock solution is inoculated with 50 μl bacterial suspension titrated at roughly 1×10^8 CFU/ml.
(§4) After each time of contact (contact times tested: 5 min, 15 min, 30 min and 60 min), residual bacteria are counted by taking a 1 ml aliquot neutralized by 9 ml Trypcase Soy Broth and 10% Polysorbate 80.
(§5) Counting is carried out by adding 1 ml neutralized mixture and four 1/10 serial dilutions to the corresponding agar plates.
(§6) The agar plates are incubated at 36° C.±1° C. in aerobic atmosphere for S. aureus and anaerobic atmosphere for P. acnes (Generbag anaer, Biomerieux) for 72 hours and then the CFUs are counted.
(§7) • with R meaning “reduction”. It refers to the ratio between the number of inoculated bacteria and the number of residual bacteria after contact of the test solution with the bacterial suspension.

[3] = system: Staphylococcus aureus ATCC6538; assay: Kinetics of antibacterial activity (residual CFU count), Staphylococcus aureus; assay type: cell-based; conditions: S. aureus
Source text: as §1, §2, §3, §4, §5, §6, §7

[4] = system: interleukin 8 release by human HaCaT keratinocytes; conditions: 24 h with PUFA, then PMA/A23187 for 6 h (FIG. 3)
Experimental: The anti-inflammatory potential of the PUFAs was tested on human keratinocytes (HaCaT) stimulated by PMA/A23187. The changes induced by these PUFAs are evaluated on the production of eicosanoids and an inflammatory cytokine, interleukin 8, during an inflammatory process triggered by PMA/A23187. HaCaT cells are incubated on 96-well plates for 24 h in the presence of PUFAs, rinsed and then stimulated by PMA/A23187. The supernatants are recovered after 6 h of stimulation and IL-8 is quantified using the OptEIA™ ELISA kit (BD Pharmingen).

P. acnes strain = assay: Antibacterial activity of the diols, MIC micromethod in liquid medium, P. acnes strain; assay type: cell-based, Propionibacterium acnes
Experimental: Tests were carried out with eight microbial strains using the dilution method described below.
Minimum inhibitory concentrations (MICs) are determined using a micromethod in liquid medium. Successive 1/2 dilutions of the test products in culture medium (Trypcase Soy Broth) are carried out in 96-well microplates in a final volume of 0.1 ml. The wells are inoculated with 0.01 ml of the bacterial suspensions titrated at roughly 1×10^7 CFU/ml. The microplates are incubated in optimal growth conditions and the MIC is read visually.
The columns labeled “BS” represent the bacteriostatic activity and the columns labeled “BC” represent the bactericidal activity of the diols (1% corresponds to a concentration of 10 mg/ml).

## CCCCC/C=C\C/C=C\CCCCCCCC(=O)O [linoleic acid]
[1]
  release of arachidonic acid: significantly inhibits
  release of cyclooxygenated metabolites: significantly inhibits
  release of lipoxygenated metabolites: significantly inhibits

## CCCCCCC(O)CO (stereo not drawn) [1,2-octanediol]
[2]; 0.5%, physiological pH, one hour of contact
  decrease of the population of P. acnes: greater than 99.9%
[2]; 0.5%, pH 7, contact 5 min
  Log R: 0.2
[2]; 0.5%, pH 7, contact 15 min
  Log R: 0.7
[2]; 0.5%, pH 7, contact 30 min
  Log R: 1.8
[2]; 0.5%, pH 7, contact 60 min
  Log R: 3
[2]; 1%, pH 7, contact 5 min
  Log R: >5
[2]; 1%, pH 7, contact 15 min
  Log R: >5
[2]; 1%, pH 7, contact 30 min
  Log R: >5
[2]; 1%, pH 7, contact 60 min
  Log R: >5
[3]; 0.5%, pH 7, contact 5 min
  Log R: 0.4
[3]; 0.5%, pH 7, contact 15 min
  Log R: 0.1
[3]; 0.5%, pH 7, contact 30 min
  Log R: 0.2
[3]; 0.5%, pH 7, contact 60 min
  Log R: 0.5
[3]; 1%, pH 7, contact 5 min
  Log R: >5.3
[3]; 1%, pH 7, contact 15 min
  Log R: >5.3
[3]; 1%, pH 7, contact 30 min
  Log R: >5.3
[3]; 1%, pH 7, contact 60 min
  Log R: >5.3

## CCCCC/C=C\C/C=C\C/C=C\CCCCC(=O)O [γ-linolenic acid]
[4]
  effect on IL-8 secretion of stimulated keratinocytes: inhibitory effect

## CCCCCCC(O)CCO (stereo not drawn) [1,3-nonanediol]
P. acnes strain
  bactericidal effect concentration (BC): 3.12 mg/mL
  bacteriostatic effect concentration (BS): 1.56 mg/mL

## CC/C=C\C/C=C\C/C=C\C/C=C\CCCCC(=O)O [stearidonic acid]
[1]
  release of arachidonic acid: significantly inhibits
  release of cyclooxygenated metabolites: significantly inhibits
  release of lipoxygenated metabolites: significantly inhibits

## CC/C=C\C/C=C\C/C=C\CCCCCCCC(=O)O [α-linolenic acid]
[1]
  release of arachidonic acid: significantly inhibits
  release of cyclooxygenated metabolites: significantly inhibits
  release of lipoxygenated metabolites: significantly inhibits
[4]
  effect on IL-8 secretion of stimulated keratinocytes: inhibitory effect
